The source of these data is patent publication US12012394B2, “Alpha-synuclein ligands” (Washington University, priority 2018, dated 2024).

One data set has as its target α-synuclein fibrils (Homo sapiens (Human), UniProt P37840). Put plainly: Thioflavin T fluorescence competitive assay. The note with it: for Ki: read-out: Thioflavin T assay Ki, competition with ThT on recombinant α-synuclein fibrils, at least three experiments.
A further data set deals with PD-seeded fibrils (Homo sapiens (Human), UniProt P37840). Put plainly: Heterologous competition binding assay with [18F]TZ61-44 as radioligand. The settings on record: radioligand [18F]TZ61-44, 25 nM PD-seeded fibrils; for Ki: Cheng-Prusoff from EC50. The procedure:
The equilibrium inhibitor constant (Ki) of a series of compounds was measured using heterologous radioactive binding assays with [^18F]TZ61-44, […], or [^125I]TZ61-84 as the screening radioligands. EC50 values for each compound were determined by fitting the data to the equation Y=Bottom+(Top−Bottom)/(1+(X−Log EC50)^−Hillcoefficient) using nonlinear regression by Kaleidagraph software, where Top and Bottom are the Y values for the top and bottom plateaus of the binding curve. The Ki values were derived from the EC50 values using the Cheng-Prusoff equation: Ki=EC50/(1+[radioligand]/Kd). FIGS. 5A-5E show the inhibition curves for TG-1-90B, TZ55-101, TZ61-84, TZ55-107, and TZ55-81 using [^18F]TZ61-44 as the radioligand. FIG. 11B-C show the inhibition curves for two separate experiments on PD fibrils for TZ55-101 using […] as the radioligand. FIGS. 12A-12F show the inhibition curves for TZ66-3, TZ64-015, TZ64-016, TZ64-018, TZ64-019, and TZ64-020 using [^18F]TZ61-44 as the radioligand. FIGS. 13A-13D show the inhibition curves for TZ66-9, TZ66-8, and TZ55-107 using [^18F]TZ61-44 as the radioligand.

A further data set deals with Fibrils 4174 (Homo sapiens, UniProt P37840). Put plainly: 3H radioligand competition, Fibrils 4174. It is filed as binding. The settings on record: hot concentration 2 nM. How it is done:
A series of compounds were synthesized and the Ki (nM) in the presence of Fibrils 4174, PD-seeded fibrils (using Tg-1-90B as the radioligand), AD Tissue 6843 and/or AD Tissue 2846 was determined. In each experiment, the “hot” concentration was 2 nM.
On the technique in general: In a radioligand displacement assay an active substance lowers the binding of a labelled ligand.

The target of data set [1] is Banner PD-seeded α-synuclein fibrils (Homo sapiens (Human), UniProt P37840). Put plainly: Homologous competition radioligand binding assay, PD-seeded fibrils. The procedure: The equilibrium dissociation constant (Kd) for a series of compounds was determined using direct radioactive competitive binding assays (homologous or heterologous) with either recombinant α-synuclein fibrils or brain tissue homogenates from AD cases.
Recombinant protein was produced in E. coli using protocols based on previously described methods for α-synuclein [Giasson, B. I., et al., “Mutant and wild type human alpha-synucleins assemble into elongated filaments with distinct morphologies in vitro,” 1999, J Biol. Chem., 274:7619-7622; Huang, C., et al., “A new method for purification of recombinant human alpha-synuclein in Escherichia coli,” 2005, Protein Expr Purif, 42:173-177; Yu, L., et al, “Synthesis and in vitro evaluation of á-synuclein ligands,” 2012, Bioorg. Med. Chem., 20:4625-4634] and tau [Li, W., et al., “Characterization of two VQIXXK motifs for tau fibrillization in vitro,” 2006, Biochemistry, 45:15692-15701]. BL21(DE3)RIL E. coli were transformed with a pRK172 bacterial expression plasmid containing the human α-synuclein coding sequence. […]. Overnight cultures were centrifuged at 3,900×g for 10 min at 25° C. and the bacterial pellets were resuspended by gentle vortexing in 20 ml osmotic shock buffer (30 mM Tris-HCl, 2 mM EDTA, 40% Sucrose, pH 7.2) and then incubated at room temperature for 10 min. The cell suspension was then centrifuged at 8,000×g for 10 min at 25° C. and the pellet was resuspended in 22.5 ml cold H2O before adding 9.4 μl 2 M MgCl2 to each tube. The suspension was incubated on ice for 3 min prior to centrifugation at 20,000×g for 15 min at 4° C. After the supernatant was transferred to a fresh tube, streptomycin was added to a final concentration of 10 mg/ml and centrifuged at 20,000×g for 15 min at 4° C. The supernatant from this step was collected and dithiothreitol (DTT) and Tris-HCl pH 8.0 were added to final concentrations of 1 mM and 20 mM respectively, before boiling for 10 min to precipitate heat-sensitive proteins, which were pelleted at 20,000×g for 15 min at 4° C. The supernatant was collected and filtered through a 0.45 μm surfactant-free cellulose acetate filter (Corning) before loading onto a 1 ml DEAE Sepharose column equilibrated in 20 mM Tris-HCl pH 8.0, 1 mM EDTA, and 1 mM DTT. The DEAE column was washed with 20 mM Tris-HCl pH 8.0, 1 mM EDTA, 1 mM DTT before eluting α-synuclein protein in 20 mM Tris-HCl pH 8.0 buffer with 1 mM EDTA, 1 mM DTT and 0.3 M NaCl. Purified α-synuclein protein was dialyzed overnight in 10 mM Tris-HCl pH 7.6, 50 mM NaCl, 1 mM DTT.
Purified recombinant α-synuclein monomer (2 mg/ml) was incubated in 20 mM Tris-HCl, pH 8.0, 100 mM NaCl for 72 h at 37 C with shaking at 1000 rpm in an Eppendorf Thermomixer. […] The concentration of α-synuclein monomer in the supernatant was determined in a BCA protein assay according to the manufacturer's instructions, using a bovine serum albumin (BSA) standard curve. The measured decrease in α-synuclein monomer concentration was used to determine the concentration of fibrils in the 72 h fibril reaction mixture. […]
These direct binding assays used a fixed concentration of either fibrils or PD/AD tissue and the radioligand (e.g., [^18F]28) and varying concentration ranges of corresponding homologous non-radiolabeled standard reference compound. […] Reactions were incubated at 37° C. for 1 h before quantifying bound radioligand. […]

A short description of data set [2]: MicroPET studies in the brain of nonhuman primate. Format: in vivo. The note with it: male adult cynomolgus macaca. How it is done: 9.93 mCi of [^18F]TZ61-44 was injected into a male adult cynomolgus macaca (9.25 Kg) 10.57 mCi of [^11C]TZ55-107 was injected into was injected into a male adult cynomolgus macaca (9.40 Kg) A simplified reference tissue model (SRTM) and spatially-constraint linear regression algorithm was used to generate R1 and DVR images (FIGS. 18A and 18B).
FIGS. 19A and 19B graphically depict the uptake of labeled TZ55-107 and TZ61-44 in the animals. [^18F]TZ61-44 had highest cortical uptake (SUV) of ˜3.48 at 4 min and the uptake ratio at 4 min versus 120 min reached ˜4.2 (FIG. 19A); [^11C]TZ55-107 had highest cortical uptake of ˜6.40 at 4 min, and the uptake ratio at 4 min versus 120 min reached ˜6.30 (FIG. 19B).

Values joined by “and” are separate entries in the source; they are usually repeats but may differ in a detail not shown here. Equal entries are not always repeated.

Turning to `COc1ccc2nc(-c3noc(-c4ccn5ccnc5c4)n3)ccc2c1` [Compound 31, 5-(Imidazo[1,2-c]pyridin-7-yl)-3-(6-methoxyquinolin-2-yl)-1,2,4-oxadiazole], on α-synuclein fibrils, the inhibition constant Ki was greater than 1000 nM. On PD-seeded fibrils, `COc1ccc(Nc2ccc3c(F)cccc3n2)cn1` [TZ64-015] had an EC50 of 46 nM and an inhibition constant Ki of 43 nM. Compound `COc1ccc2cc(-c3noc(-c4ccnc(F)c4)n3)ccc2c1` [TZ46-102] returned a Ki on Fibrils 4174 of 203 nM. Take `COc1ccc(Nc2ccc3c([N+](=O)[O-])cccc3n2)cn1` [TZ64-82]: on α-synuclein fibrils, the “potency in Thioflavin T assay” value is “high potency” and the inhibition constant Ki came out at 18 nM. At PD-seeded fibrils, `COc1ccc2nc(-c3csc(C(C)=O)c3)ccc2c1` [TZ64-018] returned an EC50 of 127 nM and a Ki of 119 nM. On Fibrils 4174, `COc1cccc(-c2nc(-c3ccc4cc(OC)ccc4n3)no2)c1` [TZ46-139] registered a Ki of 222 nM. On PD-seeded fibrils, `C=CCOCc1cc(-c2ccc3cc(OC)ccc3n2)cs1` [TZ66-8] showed a concentration giving a half-maximal response (EC50) of 73 nM and an inhibitory constant (Ki) of 68 nM. Regarding `COCOc1ccc2nc(-c3noc(-c4ccnc(OC)c4)n3)ccc2c1` [Compound 29, 3-(6-(Methoxymethoxy)quinolin-2-yl)-5-(2-methoxypyridin-4-yl)-1,2,4-oxadiazole], at α-synuclein fibrils, the Ki is greater than 1000 nM.

At PD-seeded fibrils, `COc1ccc2nc(-c3csc(C#N)c3)ccc2c1` [TZ64-020] had a half-maximal effective concentration (EC50) of 37 nM and a Ki of 34 nM.

For the compound `COc1ccc(Nc2ccc3cc(Br)ccc3n2)cn1` [TZ64-105], at α-synuclein fibrils, the “potency in Thioflavin T assay” value is given as “high potency” and the Ki amounted to 10 nM.

As for `COCc1cc(-c2ccc3cc(OC)ccc3n2)cs1` [TZ66-9], on PD-seeded fibrils, the EC50 is 84 nM and the affinity, expressed as Ki, was 78 nM. For the compound `COc1ccc(Nc2ccc3cc(I)ccc3n2)cn1` [TZ64-102], on α-synuclein fibrils, the “potency in Thioflavin T assay” value is listed as “high potency” and the Ki was found to be 12 nM. Consider `COc1ccc2nc(-c3csc(/C=N/O)c3)ccc2c1` [TZ66-16], for which, on α-synuclein fibrils, the “potency in Thioflavin T assay” value was “high potency” and the Ki was found to be 11 nM. As for `COc1ccc2nc(Nc3ccnc(OC)c3)ccc2c1` [TZ55-107], in data set [1] (preliminary / initial competitive binding assays), the “binding affinity towards PD / α-synuclein fibrils” value was “good binding affinity”. Besides, the “selectivity” value in data set [1] (preliminary binding assays) was “moderate selectivity”. On PD-seeded fibrils, the EC50 was 24 nM and 36 nM; the Ki was 22 nM and 34 nM. Moreover, in data set [2] (brain cortex, at 4 min), the “highest cortical uptake (SUV)” value is given as roughly 6.40 SUV. Besides, in data set [2] (brain cortex), the “uptake ratio at 4 min versus 120 min” value is roughly 6.30. The “blood brain barrier penetration” value in data set [2] is reported as “able to penetrate the blood brain barrier”. On Fibrils 4174, `COc1ccc2nc(-c3noc(-c4cocn4)n3)ccc2c1` [TZ46-120] gave a Ki of 646 nM. For the compound `COCOc1ccc2nc(-c3noc(-c4ccn5ccnc5c4)n3)ccc2c1` [Compound 34, 5-(Imidazo[1,2-c]pyridin-7-yl)-3-(6-(methoxymethoxy)-quinolin-2-yl)-1,2,4-oxadiazole], the Ki at α-synuclein fibrils is greater than 1000 nM. Turning to `COc1ccc2nc(Nc3coc(C=O)c3)ccc2c1` [TZ64-91], on α-synuclein fibrils, the “potency in Thioflavin T assay” value is listed as “high potency” and the Ki is 18 nM. Turning to `COC(=O)c1cc(-c2ccc3cc(OC)ccc3n2)cs1` [TZ66-25], at α-synuclein fibrils, the “potency in Thioflavin T assay” value is on record as “high potency” and the inhibition constant Ki was found to be 17 nM.

`FCCOc1ccc2nc(-c3noc(-c4ccn5ccnc5c4)n3)ccc2c1` [Compound 33, 3-(6-(2-Fluoroethoxy)quinolin-2-yl)-5-(imidazo[1,2-c]pyridin-7-yl)-1,2,4-oxadiazole]: the inhibition constant Ki at α-synuclein fibrils was greater than 1000 nM. On to `COc1cc(-c2nc(-c3ccc4cc(OC(C)C)ccc4n3)no2)ccn1` [Compound 30, 3-(6-Isopropoxyquinolin-2-yl)-5-(2-methoxypyridin-4-yl)-1,2,4-oxadiazole], for which the inhibitory constant (Ki) on α-synuclein fibrils was greater than 1000 nM. The same measure, in the same setting: as for `CC(C)Oc1ccc2nc(-c3noc(-c4ccn5ccnc5c4)n3)ccc2c1` [Compound 32, 5-(Imidazo[1,2-c]pyridin-7-yl)-3-(6-isopropoxyquinolin-2-yl)-1,2,4-oxadiazole], the figure is greater than 1000 nM; as for `COc1ccc2nc(-c3noc(-c4ccnc(OC)c4)n3)ccc2c1` [Compound 27, 5-(2-Methoxypyridin-4-yl)-3-(6-methoxyquinolin-2-yl)-1,2,4-oxadiazole], 630 nM. At PD-seeded fibrils, `COc1ccc(Nc2ccc3cc(F)ccc3n2)cn1` [TZ64-013] gave an EC50 of 29 nM and a Ki of 27 nM.

At PD-seeded fibrils, `COc1ccc2nc(-c3csc(C(=O)O)c3)ccc2c1` [TZ66-3] had an EC50 of 78 nM and a Ki of 73 nM.

Take `COc1ccc(Nc2ccc3cccc(F)c3n2)cn1` [TZ64-016]: at PD-seeded fibrils, the EC50 is 45 nM and the Ki turned out to be 42 nM. `COc1ccc2nc(-c3noc(-c4cscn4)n3)ccc2c1` [TZ46-117] showed an inhibition constant Ki at Fibrils 4174 of 156 nM.

Consider `COc1ccc2nc(-c3coc(C=O)c3)ccc2c1` [TZ64-19], for which, at α-synuclein fibrils, the “potency in Thioflavin T assay” value was “high potency” and the Ki came to 10.4 nM. The corresponding values for `COc1ccc(Nc2ccc3cc([N+](=O)[O-])ccc3n2)cn1` [TZ64-55] are “high potency” and 15 nM. On Fibrils 4174, `COc1ccc2nc(-c3noc(-c4ccc5c(c4)OCO5)n3)ccc2c1` [TZ46-136] gave a Ki of 162 nM. Turning to `COc1ccc2nc(-c3coc(C=O)c3)ccc2c1` [TZ64-019], on PD-seeded fibrils, the response was half-maximal at 28 nM (EC50) and the affinity corresponds to a Ki of 27 nM.

The Ki is the dissociation constant of the complex between target and ligand, obtained from inhibition or displacement. As usually defined, the EC50 is the concentration giving half of the maximal effect.
